Assay: in vitro
Settings: human, hela cells

Structure (SMILES)	viability at 28.5 h, 10 µM [%]
O=P(O)(O)/C=C(\Cl)c1ccccc1 [CBK261019]	97.8

Same assay, conditions: human, hela cells, % viability

Structure (SMILES)	viability at 28.5 h, 10 µM [%]
O=C(O)c1ccc(NC(=O)c2nccnc2C(=O)O)cc1 [CBK260916]	97.7
CCOC(=O)c1c(NC(=O)Cn2cnc3ccccc32)sc2c1CCCC2 [CBK260917]	106
O=[N+]([O-])c1ccc(O)c(/C=N/Nc2nc(Nc3ccc(Cl)cc3)nc(N3CCOCC3)n2)c1 [CBK260918]	90.2
C/C(=N/Nc1ccc([N+](=O)[O-])cc1[N+](=O)[O-])C1CC1 [CBK260921]	104
O=C1/C(=N\Nc2ccc([N+](=O)[O-])cc2[N+](=O)[O-])c2ccccc2N1CN1CCCCC1 [CBK260926]	94.4
O=C1/C(=N\Nc2ccc([N+](=O)[O-])cc2[N+](=O)[O-])c2cc(Br)ccc2N1CN1CCCCC1 [CBK260927]	110
OCCOc1ccccc1OCCO [CBK260930]	93.6
O=C(O)CC(CP(c1ccccc1)c1ccccc1)C(=O)O (centres unmarked) [CBK260931]	77.6
CC(C)(C)NS(=O)(=O)c1ccccc1[N+](=O)[O-] [CBK260932]	97.8
O=C(O)CCCC(=O)OCc1ccco1 [CBK260933]	98.1
O=S(=O)(O)c1cc(O)c2c(/N=N/c3c(S(=O)(=O)O)cc4cc(S(=O)(=O)O)cc(O)c4c3O)cc(S(=O)(=O)O)cc2c1 [CBK260934]	102
C/C(=N\NC(=O)c1ccccc1I)c1cccc(N)c1 [CBK260935]	107
O=C(O)/C=C(/CC(=O)O)C(=O)O [CBK260936]	102
O=C(NC(Cc1ccc(O)cc1)C(=O)O)c1ccccc1 (centres unmarked) [CBK260937]	88.4
CC(CSSCC(C)C(=O)O)C(=O)O (centres unmarked) [CBK260940]	96.7
CC(Cc1c[nH]c2ccccc12)NC(=O)CSS(=O)(=O)O (centres unmarked) [CBK260942N]	93.3
COc1ccc2[nH]c(C(=O)O)c(CCNC(C)=O)c2c1 [CBK260943N]	113
CC(=O)c1ccc2[nH]c(C(=O)O)c(CCN)c2c1 [CBK260944]	91.6
CC(=O)NCCc1c(C(=O)O)[nH]c2ccc(OCc3ccccc3)cc12 [CBK260945]	87.8
CCn1c(C)nc2cc(S(N)(=O)=O)ccc21 [CBK260950]	92.1
O=C(O)CCC(=O)Nc1ccc(C(=O)O)cc1 [CBK260952]	96.6
O=S(=O)(Nc1nc2ccccc2nc1Nc1ccccc1)c1ccccc1 [CBK260953]	94.5

Structure (SMILES)	viability at 28.5 h, 10 µM [%]
O=C(O)C(O)C(O)c1nc2ccccc2[nH]1 (centres unmarked) [CBK260955]	107
N#Cc1ccc(Oc2ccc(C(=O)C(=O)c3ccccc3)cc2)cc1C#N [CBK260959]	100
CC(C)(c1ccc(OC(=O)c2ccc(N)cc2)cc1)c1ccc(OC(=O)c2ccc(N)cc2)cc1 [CBK260962]	91.2
O=C(CCN1C(=O)c2ccccc2C1=O)N1CCOCCOCCN(C(=O)CCN2C(=O)c3ccccc3C2=O)CCOCCOCC1 [CBK260964]	89.9
NC(=O)CCC(NC=O)C(=O)O (centres unmarked) [CBK260967]	88.4
CC(C(=O)O)c1cc(C(=O)c2ccccc2)sc1-c1ccccc1 (centres unmarked) [CBK260968]	91.3
Cc1ccc(N)c(C(=O)CCCCC(=O)O)c1 [CBK260970]	90.5
O=[N+]([O-])c1ccccc1/C=N/Nc1nnn[nH]1 [CBK260971]	106
Oc1ccc(/C=N/Nc2nnn[nH]2)c(O)c1 [CBK260972]	99
c1ccc2c(c1)n[n+]1c3ccccc3[n-]n21 [CBK260974]	85.7
Cc1cc(C)nc(SCCC(=O)O)n1 [CBK260975]	87.7
Oc1ccc(/C=N/c2nnn[nH]2)cc1 [CBK260976]	101
Oc1cccc(/C=N/c2nnn[nH]2)c1 [CBK260977]	91.7
O=C1C2C(c3ccccc3)NC(c3ccccc3)C1C(c1ccccc1)NC2c1ccccc1 (centres unmarked) [CBK260981]	93
COc1cccc(/C=C/C2=NN(c3cccc(F)c3)C(c3cccc(OC)c3OC)C2)c1OC (centres unmarked) [CBK260983]	104
Cc1ccc(S(=O)(=O)OCCOS(=O)(=O)c2ccc(C)cc2)cc1 [CBK260986]	96.2
O=C(O)/C=C/C(=O)Nc1cccc(C(=O)O)c1 [CBK260988]	97.7
O=C(O)/C=C\C(=O)NCC(=O)O [CBK260989]	93.5
N=C(N)SCC1CNC(=N)S1 (centres unmarked) [CBK260991]	99.3
NNC(=O)c1ccc(Oc2ccc(C(=O)NN)cc2)cc1 [CBK260995]	85.7
CN(CC(=O)O)c1ccccc1C(=O)O [CBK260996]	98.2
O=S(=O)([O-])c1cc(S(=O)(=O)O)ccc1Nc1cc2c(nc3ccccc3[n+]2-c2ccccc2)c2ccccc12 [CBK260997N]	102

Structure (SMILES)	viability at 28.5 h, 10 µM [%]
[N-]=[N+]=NC1C2OCC(O2)C(OCc2ccccc2)C1O (centres unmarked) [CBK261000]	90.1
CCOC(=O)CCCCNC(O)C(Cl)(Cl)Cl (centres unmarked) [CBK261003C]	106
CC1(C)C(N(O)C(=O)Nc2cccc3ccccc23)N(c2cccc3ccccc23)C(=O)N1CC(=O)NN (centres unmarked) [CBK261004]	88.2
O=C(O)C1CSC(c2ccccc2)N1 (centres unmarked) [CBK261008]	114
CN1C(=O)/C(=C2\SC(=S)N(C(CCC(=O)O)C(=O)O)C2=O)c2ccccc21 (centres unmarked) [CBK261010]	92.3
O=C(O)CCC(C(=O)O)N1C(=O)/C(=C\C(Cl)=C/c2ccc([N+](=O)[O-])cc2)SC1=S (centres unmarked) [CBK261011]	92.1
CN1C(=O)/C(=C2\SC(=S)N(C(CC(=O)O)C(=O)O)C2=O)c2ccccc21 (centres unmarked) [CBK261012]	107
O=C(O)CC(C(=O)O)N1C(=O)/C(=C\C(Cl)=C/c2ccc([N+](=O)[O-])cc2)SC1=S (centres unmarked) [CBK261013]	99.2
Nc1n[nH]c(CCCc2nc(N)n[nH]2)n1 [CBK261016]	89.8
c1ccc(-c2cc(-c3ccccc3)n3nc(Cc4nc5nc(-c6ccccc6)cc(-c6ccccc6)n5n4)nc3n2)cc1 [CBK261017]	93.1
CCC(=O)NC(N(Cc1ccccc1)Cc1ccccc1)C(Cl)(Cl)Cl (centres unmarked) [CBK261022]	90.9
O=C(NC(N1CCCCC1)C(Cl)(Cl)Cl)c1ccc(Cl)cc1Cl (centres unmarked) [CBK261024]	91.6
O=C(O)c1ccc(NC(S)=NC(NC(=O)c2ccco2)C(Cl)(Cl)Cl)cc1 (centres unmarked) [CBK261025]	96.2
CCC(=O)NC(NC(=S)Nc1cccc2cccnc12)C(Cl)(Cl)Cl (centres unmarked) [CBK261027]	96.1
NC(=O)COc1ccccc1O [CBK261029]	111
COc1ccc(OCc2nc3ccccc3[nH]2)cc1 [CBK261030]	94.8
O=C(NC1CCS(=O)(=O)C1)/C(=C\c1ccccc1)NC(=O)c1ccc([N+](=O)[O-])cc1 (centres unmarked) [CBK261034]	106
O=C(NC(C(=O)c1ccccc1)N1CCCCC1)c1ccccc1 (centres unmarked) [CBK261035]	123
O=C(NC(n1cnc2c(N3CCCCC3)ncnc21)C(Cl)(Cl)Cl)c1ccccc1 (centres unmarked) [CBK261038]	98.5
COc1cc(C(=O)NCC(=O)O)cc(OC)c1OC [CBK261039]	89.9
COc1ccc(C(=O)NCCc2nc3ccccc3[nH]2)cc1 [CBK261040]	101
O=C(COc1ccc(Cl)cc1)NNC(=O)c1cccnc1 [CBK261044]	97.4

Structure (SMILES)	viability at 28.5 h, 10 µM [%]
O=C(/C=C/c1ccccc1)NC(NC(=S)Nc1cccc2cccnc12)C(Cl)(Cl)Cl (centres unmarked) [CBK261046]	101
CC(C)C(=O)NC(NC(=S)Nc1sc2c(c1C(N)=O)CCCC2)C(Cl)(Cl)Cl (centres unmarked) [CBK261050]	94
CC(C)(C)C(=O)NC(NC(=S)Nc1sc2c(c1C(N)=O)CCCC2)C(Cl)(Cl)Cl (centres unmarked) [CBK261052]	94.7
Cc1ccc(S(=O)(=O)N/N=C(/c2ccccc2)c2ccc(OCC(C)C)cc2)cc1 [CBK261056]	87.8
O=[N+]([O-])c1ccc(/C=N/CCCN2CCOCC2)cc1 [CBK261058]	87.5
CCOC(=O)/C(=N/Nc1cccc(C)c1)c1csc(N)n1 [CBK261059]	97.9
O=C(COc1ccc(Cl)cc1Cl)NC(Cc1ccccc1)C(=O)O (centres unmarked) [CBK261061]	102
O=C(O)CSc1c(NC(=O)c2ccccc2)sc2c1CCCC2 [CBK261062]	97.5
c1nncn1/N=C1/CCCc2nonc21 [CBK261065]	91.8
O=C(NC(=S)Nc1ccc(S(=O)(=O)Nc2nccs2)cc1)C12CC3CC(CC(C3)C1)C2 [CBK261067]	101
NC(=O)NS(=O)(=O)c1ccc(NC(=S)NC(=O)c2ccco2)cc1 [CBK261068]	117
Cc1nc2c([N+](=O)[O-])c3c(c([N+](=O)[O-])c2[nH]1)Nc1nonc1N3 [CBK261069]	107
CC(C)(C)N=C1c2nn(Cc3ccccc3)nc2C(=NC(C)(C)C)c2nn(Cc3ccccc3)nc21 [CBK261070]	103
CC(C)(C)c1cc(C(C)(C)C)cc(S(=O)(=O)CCc2ccccn2)c1 [CBK261073]	88.4
c1cc2c3c(ccc(CSCCc4ccncc4)c3c1)CC2 [CBK261074G]	90.4
O=C(O)c1ccccc1NC1SC(=O)N(c2ccccc2)C1=O (centres unmarked) [CBK261078]	93.7
O=C(O)CCC(=O)NNC(=O)c1ccccc1[N+](=O)[O-] [CBK261079]	95.8
O/N=C(\Cn1cncn1)c1ccc(Cl)cc1Cl [CBK261085]	93.5
COc1cc(-c2ccc(/N=C/c3ccccc3O)c(OC)c2)ccc1/N=C/c1ccccc1O [CBK261089]	101
CC(C)(C)NC(NC(=O)Cc1ccccc1)C(Cl)(Cl)Cl (centres unmarked) [CBK261090]	86.5

Same assay, conditions: human, hela cells, % viability, bulk resorufin, single well

Structure (SMILES)	viability at 28.5 h, 10 µM [%]
NCCc1c[nH]c2ccc(OCc3ccccc3)cc12 [CBK260980C]	84.9
CC(C)C(Nc1c([N+](=O)[O-])cc(C(F)(F)F)cc1[N+](=O)[O-])C(=O)O (centres unmarked) [CBK261041]	96.4
